Assay results as given in US20110065715A1, “Nogo Receptor Binding Small Molecules to Promote Axonal Growth” (Yale University, priority 2007, published 2011).
Entries after “also recorded” stand apart in the source; their conditions may differ. Read-outs that look alike come from different tables or passages of the source.

Assays:
[1] = tested on: embryonic day 13 or 14 chick DRG neurons; experiment: Neurite outgrowth assay, E13/E14 chick DRG neurons; format: cell-based, chicken; settings: 20 μM; for neurite outgrowth compared to the DMSO control: E13 or E14 chick DRG, two to four hours
Experimental: (§1) To test the ability of the “hit” compounds to promote neurite outgrowth, a neurite outgrowth assay was performed using each of these compounds. Dorsal root ganglia (DRG) were removed from chicken embryos at embryonic day 13 or 14, dissociated by trituration after 30 min incubation in 0.5% collagenase, and plated on laminin-coated 96-well tissue culture plates in DMEM with 10% fetal bovine serum containing 20 μM of the test compound. After two to four hours of incubation, the cells were fixed in 4% formaldehyde in phosphate buffered saline (PBS), washed in PBS, and blocked for 1 hour in PBS with 0.1% triton X-100 and 10% goat serum. The cells were incubated in rabbit anti-beta-3-tubulin (1:500) in PBS overnight and then washed 3 times with PBS. The cells were then incubated in Alexa-fluor 488 goat anti-rabbit IgG (1:500) for 6 hrs, washed with PBS, and imaged at 10× with an ImagExpress automated microscope (Molecular Devices, Inc.). Neurite outgrowth was measured with AcuityExpress software (Molecular Devices, Inc.).

[2] = tested on: Nogo receptor:Nogo ligand (Nogo 66) interaction; experiment: ELISA assay of NgR:Nogo ligand interaction; format: binding
Experimental: In the ELISA assay, 96 well streptavidin coated plates were blocked overnight with PBS and 10 mg/ml bovine serum albumin (BSA) (200 μl). The wells were then coated for 1.5 hours with sonicated HBH (Hanks Balanced Salt Solution/0.1 M HEPES/1 mg/ml BSA) containing Nogo 66 (B66) (0.5 μl of 10 mM/10 ml HBH) (50 μl) and then washed 4 times with 200 μl of HBH. The solution containing the inhibitor compound (50 μl in HBH) was added along with 1% FcNgR solution in HBH (50 μl), and the solution was incubated for 2 hours. The wells were washed 5 times with HBH. Alkaline phosphatase (AP) conjugated mouse anti-rat antibody (1:2500) was added and the wells were then washed 5 times with HBH. Colorimetric alkaline phosphatase substrate was added for 30 minutes and the plate was read with the Perkin Elmer Victor 5 instrument. (FIG. 10A). […] (FIG. 10C).

[3] = tested on: Nogo receptor:Nogo ligand (Nogo 66) interaction; experiment: DELFIA assay of Fc-NgR:Ng66 interaction; format: binding
Experimental: ELISA and DELFIA assays were then performed to evaluate the ability of the small molecules that were identified as “hits” in the AlphaScreens to inhibit the interaction of NgR and Nogo ligand. In the DELFIA Assay, 96 well streptavidin coated plates were blocked overnight with PBS and 10 mg/ml bovine serum albumin (BSA) (200 μl). The wells were then coated for 1.5 hours with sonicated HBH (Hanks Balanced Salt Solution/0.1 M HEPES/1 mg/ml BSA) containing Nogo 66 (B66) (0.5 μl of 10 mM/10 ml HBH) (50 μl) and then washed 4 times with 200 μl of HBH. The solution containing the inhibitor compound (50 μl in HBH) was added along with 1% FcNgR solution in HBH (50 μl), and the solution was incubated for 2 hours. The wells were washed 5 times with HBH. Alkaline phosphatase (AP) conjugated mouse anti-rat antibody (1:2500) was added and the wells were then washed 5 times with DELFIA wash buffer. The Europium (Eu) anti-mouse antibody was then added in Perlin Elmer Assay, buffer (100 μg/ml) (150 μl) and the wells were again washed 5 times with DELFIA wash buffer. The enhancer solution was added (100 μl) and the plate was read with the Perkin Elmer Victor 5 instrument 15 minutes later. (FIG. 10B) The results from the DELFIA assay indicate that compounds HTS08871, KM08071, and 503749, as well as the positive control, NEP33, inhibit the Nogo receptor:Nogo ligand (Nogo 66) interaction. (FIGS. 10D and 11A-C).

[4] = tested on: embryonic day 13 (E13) chick DRG neurons; experiment: Competition neurite outgrowth assay with soluble FcNgR; format: cell-based, chicken; settings: for outgrowth promoting effect when coadministered with FcNgR: with 7.5 μM FcNgR, 3.5 hours
Experimental: as §1
To further verify the mechanism of how the compounds are promoting neurite outgrowth, a competition assay was performed. […] (FIG. 12B). compounds KM, HTS or 555 were then coadministered with 7.5 μM of FcNgR. […] (FIGS. 14A-B and 17B).

[5] = tested on: embryonic day 8 (E8) chick DRG neurons; experiment: Neurite outgrowth assay, E8 chick DRG neurons (no Nogo receptor expressed); format: cell-based, chicken; settings: Nogo receptor not yet expressed
Experimental: as §1
In another experiment to verify the mechanism of action, a neurite outgrowth assay was performed as described above except the Dorsal root ganglia (DRG) were removed from chicken embryos at embryonic day 8 instead of day 13. At day 8, Nogo receptor is not yet expressed in the DRG. The compounds KM, HTS, 555, 5470, 585 were administered as described above and neurite outgrowth was measured. […] (FIG. 21)

[6] = tested on: Fc-NgR:Ng66 interaction; experiment: AlphaScreen of Fc-NgR:Ng66 interaction; format: binding
Fc-NgR:Ng66 interaction, sequence (Q99M75 27-310 limits assumed): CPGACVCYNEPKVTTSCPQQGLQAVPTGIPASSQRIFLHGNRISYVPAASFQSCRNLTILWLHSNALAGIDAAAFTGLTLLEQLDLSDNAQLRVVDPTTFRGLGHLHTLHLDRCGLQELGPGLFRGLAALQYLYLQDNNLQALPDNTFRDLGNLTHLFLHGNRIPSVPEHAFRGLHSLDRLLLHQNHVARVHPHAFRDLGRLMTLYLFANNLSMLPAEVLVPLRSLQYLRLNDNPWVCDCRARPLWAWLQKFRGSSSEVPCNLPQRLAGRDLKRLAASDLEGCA
Excerpt: An AlphaScreen assay was used to screen for small molecule inhibitors of the Nogo receptor-Nogo ligand interaction. The AlphaScreen assay involves matching Alpha Donor (Streptavidin) and Acceptor beads (Protein A). (FIG. 1) These beads are coated with a layer of hydrogel to provide functional groups for bioconjugation. […] However, if a biological reaction brings the Alpha Donor and Acceptor beads into close proximity, upon laser excitation, a cascade of chemical reactions produces a greatly amplified signal. (FIG. 3) Upon laser excitation, a photosensitizer inside the Donor bead converts ambient oxygen to a more excited singlet state. The singlet state oxygen molecules diffuse to produce a chemiluminescent reaction in the Acceptor bead, leading to light emission. In the absence of a specific biological interaction, the singlet state oxygen molecules produced by the Donor bead go undetected without the close proximity of the Acceptor bead.
Beads conjugated to streptavidin were used to bind biotinylated Nogo 66 (Ng66) (the 66 amino acid inhibitory domain in the carboxyl region of Nogo ligand), and beads conjugated to Protein A were used to bind an Fc-Nogo receptor (NgR) fusion protein. (FIG. 2) By virtue of the interaction of Ng66 and Fc-NgR, the acceptor beads and donor beads were brought into proximity, yielding a signal upon excitation. […] (FIGS. 4 and 6). […]

## CN(C)c1ccc(Cc2ccc(N(C)C)cc2)cc1 [BTB11222, N1,N1-dimethyl-4-[4-(dimethylamino)benzyl]aniline]
[1]
  neurite outgrowth compared to the DMSO control: promoted neurite outgrowth

## N.N.[Cl][Pt][Cl] [Cisplatin]
[2]
  inhibition of Nogo receptor:Nogo 66 interaction, ELISA: inhibit

## COc1ccc2c(c1)NC(c1ccc(N(C)C)cc1)c1cccn1-2 (centres unmarked) [HTS, 4′-(7-methoxy-4,5-dihydropyrrolo[1,2-a]quinoxalin-4-yl)-N,N-dimethylaniline]
[3]
  inhibition of Nogo receptor:Nogo 66 interaction signal, DELFIA: dose dependent signal inhibition
[3]; listed as HTS08871
  inhibition of Nogo receptor:Nogo 66 interaction signal, DELFIA: inhibit
[1]
  neurite outgrowth compared to the DMSO control: promoted neurite outgrowth
[4]
  neurite outgrowth in the absence of exogenous FcNgR: promoted neurite outgrowth
  outgrowth promoting effect when coadministered with FcNgR: inhibited; also recorded: blocking
[5]
  effect on neurite outgrowth of day 8 DRGs: no effect

## N#C/C(=C\c1ccc(C#Cc2ccccc2)cc1)C(=O)c1ccc(Cl)cc1 [KM, 2-(4-chlorobenzoyl)-3-[4-(2-phenyleth-1-ynyl)phenyl]acrylonitrile]
[3]
  inhibition of Nogo receptor:Nogo 66 interaction signal, DELFIA: dose dependent signal inhibition
[3]; listed as KM08071
  inhibition of Nogo receptor:Nogo 66 interaction signal, DELFIA: inhibit
[1]
  basal neurite outgrowth, E13 chick DRG neurons: neurite outgrowth promoting effect
  neurite outgrowth compared to the DMSO control: promoted neurite outgrowth
[4]
  neurite outgrowth in the absence of exogenous FcNgR: promoted neurite outgrowth
  outgrowth promoting effect when coadministered with FcNgR: inhibited; also recorded: blocking
[5]
  effect on neurite outgrowth of day 8 DRGs: no effect

## Cc1nccc(-c2cccc(N/N=C(\C#N)C(=O)c3ccc(Cl)cc3)c2)n1 [KMO2502]
[1]
  neurite outgrowth compared to the DMSO control: inhibited neurite outgrowth

## N#Cc1ccc(Cn2c(=O)sc3ccccc32)cc1 [compound 535, 4-[(2-oxo-1,3-benzothiazol-3(2H)-yl)methyl]benzonitrile]
[1]
  neurite outgrowth compared to the DMSO control: promoted neurite outgrowth

## CN(C)c1ccc(C2C=Cc3ccccc3N2C(=O)c2ccccc2)cc1 (centres unmarked) [compound 536, 4-(1-benzoyl-1,2-dihydro-2-quinolinyl)-N,N-dimethylaniline]
[1]
  neurite outgrowth compared to the DMSO control: promoted neurite outgrowth

## CCOC(=O)C1=C(C)N=C2SCC(=O)N2C1c1ccc(N(C)C)cc1 (centres unmarked) [compound 555, ethyl 5-[4-(dimethylamino)phenyl]-7-methyl-3-oxo-2,3-dihydro-5H-[1,3]thiazolo[3,2-a]pyrimidine-6-carboxylate]
[1]
  basal neurite outgrowth, E13 chick DRG neurons: neurite outgrowth promoting effect
  neurite outgrowth compared to the DMSO control: promoted neurite outgrowth
[4]
  neurite outgrowth in the absence of exogenous FcNgR: promoted neurite outgrowth
  outgrowth promoting effect when coadministered with FcNgR: inhibited; also recorded: blocking
[5]
  effect on neurite outgrowth of day 8 DRGs: no effect

## Cc1oc2ccc(O)cc2c1C(=O)c1ccc(Cl)cc1 [compound 585, (4-chlorophenyl)(5-hydroxy-2-methyl-1-benzofuran-3-yl)methanone]
[1]
  neurite outgrowth compared to the DMSO control: promoted neurite outgrowth
  basal neurite outgrowth, E14 chick DRG neurons: neurite outgrowth promoting effect
[5]
  effect on neurite outgrowth of day 8 DRGs: no effect

## CN1C(=O)C(O)(CC(=O)c2ccc(Cl)cc2)c2ccccc21 (centres unmarked) [compound 592, 3-[2-(4-chlorophenyl)-2-oxoethyl]-3-hydroxy-1-methyl-1,3-dihydro-2H-indol-2-one]
[1]
  neurite outgrowth compared to the DMSO control: inhibited neurite outgrowth

## CCN1C(=O)C(O)(CC(=O)c2ccc(Cl)cc2)c2ccccc21 (centres unmarked) [compound 664, 3-[2-(4-chlorophenyl)-2-oxoethyl]-1-ethyl-3-hydroxy-1,3-dihydro-2H-indol-2-one]
[1]
  neurite outgrowth compared to the DMSO control: inhibited neurite outgrowth

## CCc1cccc2c(C(C)=O)cn(Cc3ccc(C#N)cc3)c12 [compound 794, 4-[(3-acetyl-7-ethyl-1H-indol-1-yl)methyl]benzonitrile]
[1]
  neurite outgrowth compared to the DMSO control: promoted neurite outgrowth

## O=C(c1ccc(Cl)cc1)c1coc2ccc(O)cc12 [compound 5470, (4-chlorophenyl)(5-hydroxy-1-benzofuran-3-yl)methanone]
[1]
  neurite outgrowth compared to the DMSO control: promoted neurite outgrowth
  basal neurite outgrowth, E14 chick DRG neurons: neurite outgrowth promoting effect
[5]
  effect on neurite outgrowth of day 8 DRGs: no effect

## Cc1ccc2occ(C(=O)c3ccc(Cl)cc3)c(=O)c2c1 [compound 5472, 3-(4-chlorobenzoyl)-6-methyl-4H-chromen-4-one]
[1]
  neurite outgrowth compared to the DMSO control: promoted neurite outgrowth

## O=C(CC1(O)C(=O)Nc2ccc(Br)cc21)c1ccc(Cl)cc1 (centres unmarked) [compound 5475, 5-bromo-3-[2-(4-chlorophenyl)-2-oxoethyl]-3-hydroxy-1,3-dihydro-2H-indol-2-one]
[1]
  neurite outgrowth compared to the DMSO control: inhibited neurite outgrowth

## Acetyl-RIYKSVLQAVQKTDEGHPFKAYLELEITLSQEQ-Amide (Ac-RIYKSVLQAVQKTDEGHPFKAYLELEITLSQEQ-NH2) [NEP33]
[3]
  inhibition of Nogo receptor:Nogo 66 interaction signal, DELFIA: inhibit
[6]
  interference with Ng66:Fc-NgR interaction (AlphaScreen signal): reducing signal
[6]; 20 hours incubation, concentration between 1.25 μM and 20 μM, beads 5 μg/ml
  inhibition of interaction of Ng66 and Fc-NgR (AlphaScreen signal): inhibited
[2]
  inhibition of Nogo receptor:Nogo 66 interaction, ELISA: inhibit
